Experimental data published in article PMC12125979, “Complete xylan utilization pathway and regulation mechanisms involved in marine algae degradation by cosmopolitan marine and human gut microbiota” (The ISME Journal, 2025).

T1: BxlE (Streptomyces thermoviolaceus, UniProt Q76BU9)
T1 construct: gene bxlD
T1 sequence (Q76BU9 1-436): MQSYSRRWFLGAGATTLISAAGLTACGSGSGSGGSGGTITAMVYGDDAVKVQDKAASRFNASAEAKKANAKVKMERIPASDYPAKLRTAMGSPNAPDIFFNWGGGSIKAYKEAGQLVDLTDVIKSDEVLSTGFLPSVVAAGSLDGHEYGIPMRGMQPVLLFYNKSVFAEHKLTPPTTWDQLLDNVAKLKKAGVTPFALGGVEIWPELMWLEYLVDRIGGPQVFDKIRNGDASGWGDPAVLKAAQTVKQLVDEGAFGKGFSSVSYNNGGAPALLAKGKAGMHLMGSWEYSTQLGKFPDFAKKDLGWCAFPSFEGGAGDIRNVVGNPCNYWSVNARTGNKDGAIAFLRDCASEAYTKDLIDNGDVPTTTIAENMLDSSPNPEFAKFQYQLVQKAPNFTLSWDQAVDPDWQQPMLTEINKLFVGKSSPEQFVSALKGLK


Columns and labels:
[1] = target: XylRA; assay: isothermal titration calorimetry; settings: 10 mM Tris-HCl pH 8.0, 100 mM NaCl, 25°C; effector
[2] = target: T2, XylC; assay: isothermal titration calorimetry; format: binding, Vibrio sp. EA2; settings: 10 mM Tris-HCl pH 8.0, 100 mM NaCl, 25°C
T2 construct: construct borders only in supplement

[3] = target: T1, BxlE; assay: biochemical; parameters: isothermal titration calorimetry binding of xylooligosaccharides to recombinant substrate-binding proteins
[4] = target: XylRA (Vibrio sp. EA2, UniProt A0A090T8X9 1-401); assay: EMSA; xylose; EMSA: 25 ng biotin-labelled probe, 0.1-0.5 nmol XylRA in 20 uL EMSA/Gel-shift binding buffer (Beyotime), xylose present, room temperature; salt and pH not stated; settings: protein: recombinant; tags: C-terminal His (pET-22b); chain copies: 2; label: 5'-biotin on strand 1; blunt

Row | Molecule | Kd [3] [nM] | binding result [4] | also measured
1 | OC1OC[C@@H](O)[C@H](O)[C@H]1O (stereo partly shown) [X, xylose] | – | – | Kd [1]: 5100 nM
2 | OC1OC[C@@H](O)[C@H](O[C@@H]2OC[C@@H](O)[C@H](O[C@@H]3OC[C@@H](O)[C@H](O[C@@H]4OC[C@@H](O)[C@H](O)[C@H]4O)[C@H]3O)[C@H]2O)[C@H]1O (stereo partly drawn) [β-1,3X4, β-1,3-xylotetraose] | – | – | Kd [2]: 1000 nM
3 | Pxyn26B (dsDNA) DNA 1: ACACAAAAAAAATATAAAAATATAATCAGAAAAAATCATAATTGATATTG DNA 2: CAATATCAATTATGATTTTTTCTGATTATATTTTTATATTTTTTTTGTGT | – | binds | –
4 | PxylC (dsDNA) DNA 1: GGAAATAAATAGAATAAATGTGGTGAGAGATATAATAATACTTGCCATAG DNA 2: CTATGGCAAGTATTATTATATCTCTCACCACATTTATTCTATTTATTTCC | – | binds | –
5 | PxylB (dsDNA) DNA 1: CAATTATGTTTTTTTACAGGTGAATTCACGGATTTCACGAGTGAGTCTGA DNA 2: TCAGACTCACTCGTGAAATCCGTGAATTCACCTGTAAAAAAACATAATTG | – | binds | –
6 | PxylT (dsDNA) DNA 1: ACATTTAGCAAATAGGTGAAATTTGGTATCAAAAATCATAATTGATGGCG DNA 2: CGCCATCAATTATGATTTTTGATACCAAATTTCACCTATTTGCTAAATGT | – | binds | –
7 | PxylT-m2 (dsDNA) DNA 1: ACATTTAGCGCATAGGTGAAATTTGGTATCGCAAATCATAATTGATGGCG DNA 2: CGCCATCAATTATGATTTGCGATACCAAATTTCACCTATGCGCTAAATGT | – | no binding | –

More lines, main results first:

Row | Kd [3] [nM] | Molecule | binding result [4] | also measured
8 | 15.1 ± 4.04 | OC1OC[C@@H](O[C@@H]2OC[C@@H](O)[C@H](O)[C@H]2O)[C@H](O)[C@H]1O (stereo partly drawn) [β-1,4X2] | – | –
9 | 6.28 ± 1.93 | OC1OC[C@@H](O[C@@H]2OC[C@@H](O[C@@H]3OC[C@@H](O)[C@H](O)[C@H]3O)[C@H](O)[C@H]2O)[C@H](O)[C@H]1O (stereo partly drawn) [β-1,4X3] | – | –
10 | 13.2 ± 1.93 | OC1OC[C@@H](O[C@@H]2OC[C@@H](O[C@@H]3OC[C@@H](O[C@@H]4OC[C@@H](O)[C@H](O)[C@H]4O)[C@H](O)[C@H]3O)[C@H](O)[C@H]2O)[C@H](O)[C@H]1O (stereo partly drawn) [β-1,4X4] | – | –
